Experiment: Stability of itampolin A in biological samples under different storage conditions
Assay type: physicochemical, rat
Details: for Stability, Autosampler 4 °C for 24 h / Stability, Long-Term (at −80 °C for 30 Days) / Stability, Short-Term (at Room Temperature for 4 h) / Stability, Three Freeze–Thaw Cycles: n = 5, in %
Experimental: The stability of itampolin A was investigated by analyzing five replicates of the samples at three QC levels (3, 40, and 1280 ng/mL) under different storage conditions: (1) 4 h exposure at room temperature, (2) 24 h storage in the autosampler at 4 °C, (3) three freeze–thaw cycles, and (4) storage at −80 °C for 30 days. The samples were considered stable if the average percentage concentration deviation was within 15% of the actual value.

COc1c(Br)cc(C[C@H](NC(=O)Cc2ccc(OCCCNC(C)=O)cc2)C(=O)NCCc2cc(Br)c(O)c(Br)c2)cc1Br [itampolin A, Itampolin A]
Stability, Autosampler 4 °C for 24 h (brain, spiked 3 ng/mL): 98.3 ± 5.8 | Stability, Long-Term (at −80 °C for 30 Days) (brain, spiked 3 ng/mL): 94.3 ± 8.7 | Stability, Short-Term (at Room Temperature for 4 h) (brain, spiked 3 ng/mL): 112.6 ± 3.9 | Stability, Three Freeze–Thaw Cycles (brain, spiked 3 ng/mL): 99.5 ± 6.3 | Stability, Autosampler 4 °C for 24 h (brain, spiked 40 ng/mL): 108.0 ± 4.0 | Stability, Long-Term (at −80 °C for 30 Days) (brain, spiked 40 ng/mL): 95.0 ± 2.9 | Stability, Short-Term (at Room Temperature for 4 h) (brain, spiked 40 ng/mL): 99.9 ± 10.9 | Stability, Three Freeze–Thaw Cycles (brain, spiked 40 ng/mL): 93.7 ± 7.8 | Stability, Autosampler 4 °C for 24 h (brain, spiked 1280 ng/mL): 96.8 ± 8.3 | Stability, Long-Term (at −80 °C for 30 Days) (brain, spiked 1280 ng/mL): 94.6 ± 5.7 | Stability, Short-Term (at Room Temperature for 4 h) (brain, spiked 1280 ng/mL): 99.7 ± 2.9 | Stability, Three Freeze–Thaw Cycles (brain, spiked 1280 ng/mL): 104.3 ± 2.6 | Stability, Autosampler 4 °C for 24 h (heart, spiked 3 ng/mL): 87.2 ± 7.2 | Stability, Long-Term (at −80 °C for 30 Days) (heart, spiked 3 ng/mL): 103.3 ± 6.8 | Stability, Short-Term (at Room Temperature for 4 h) (heart, spiked 3 ng/mL): 97.7 ± 3.6 | Stability, Three Freeze–Thaw Cycles (heart, spiked 3 ng/mL): 94.3 ± 6.5 | Stability, Autosampler 4 °C for 24 h (heart, spiked 40 ng/mL): 103.9 ± 3.5 | Stability, Long-Term (at −80 °C for 30 Days) (heart, spiked 40 ng/mL): 97.4 ± 5.3 | Stability, Short-Term (at Room Temperature for 4 h) (heart, spiked 40 ng/mL): 100.3 ± 2.6 | Stability, Three Freeze–Thaw Cycles (heart, spiked 40 ng/mL): 108.3 ± 9.7 | Stability, Autosampler 4 °C for 24 h (heart, spiked 1280 ng/mL): 94.0 ± 7.3 | Stability, Long-Term (at −80 °C for 30 Days) (heart, spiked 1280 ng/mL): 95.3 ± 5.4 | Stability, Short-Term (at Room Temperature for 4 h) (heart, spiked 1280 ng/mL): 89.3 ± 5.3 | Stability, Three Freeze–Thaw Cycles (heart, spiked 1280 ng/mL): 98.9 ± 4.9 | Stability, Autosampler 4 °C for 24 h (intestine, spiked 3 ng/mL): 99.5 ± 5.3 | Stability, Long-Term (at −80 °C for 30 Days) (intestine, spiked 3 ng/mL): 96.3 ± 7.9 | Stability, Short-Term (at Room Temperature for 4 h) (intestine, spiked 3 ng/mL): 100.1 ± 6.1 | Stability, Three Freeze–Thaw Cycles (intestine, spiked 3 ng/mL): 108.7 ± 2.9 | Stability, Autosampler 4 °C for 24 h (intestine, spiked 40 ng/mL): 106.4 ± 8.9 | Stability, Long-Term (at −80 °C for 30 Days) (intestine, spiked 40 ng/mL): 85.9 ± 7.4 | Stability, Short-Term (at Room Temperature for 4 h) (intestine, spiked 40 ng/mL): 101.3 ± 2.3 | Stability, Three Freeze–Thaw Cycles (intestine, spiked 40 ng/mL): 98.3 ± 5.0 | Stability, Autosampler 4 °C for 24 h (intestine, spiked 1280 ng/mL): 102.3 ± 4.1 | Stability, Long-Term (at −80 °C for 30 Days) (intestine, spiked 1280 ng/mL): 89.0 ± 7.9 | Stability, Short-Term (at Room Temperature for 4 h) (intestine, spiked 1280 ng/mL): 99.7 ± 3.3 | Stability, Three Freeze–Thaw Cycles (intestine, spiked 1280 ng/mL): 107.5 ± 8.2 | Stability, Autosampler 4 °C for 24 h (kidney, spiked 3 ng/mL): 93.0 ± 8.9 | Stability, Long-Term (at −80 °C for 30 Days) (kidney, spiked 3 ng/mL): 89.1 ± 7.1 | Stability, Short-Term (at Room Temperature for 4 h) (kidney, spiked 3 ng/mL): 98.6 ± 4.0 | Stability, Three Freeze–Thaw Cycles (kidney, spiked 3 ng/mL): 97.1 ± 6.7 | Stability, Autosampler 4 °C for 24 h (kidney, spiked 40 ng/mL): 100.7 ± 7.6 | Stability, Long-Term (at −80 °C for 30 Days) (kidney, spiked 40 ng/mL): 97.3 ± 8.5 | Stability, Short-Term (at Room Temperature for 4 h) (kidney, spiked 40 ng/mL): 106.8 ± 7.3 | Stability, Three Freeze–Thaw Cycles (kidney, spiked 40 ng/mL): 98.4 ± 5.0 | Stability, Autosampler 4 °C for 24 h (kidney, spiked 1280 ng/mL): 92.7 ± 4.2 | Stability, Long-Term (at −80 °C for 30 Days) (kidney, spiked 1280 ng/mL): 110.4 ± 5.9 | Stability, Short-Term (at Room Temperature for 4 h) (kidney, spiked 1280 ng/mL): 99.8 ± 8.1 | Stability, Three Freeze–Thaw Cycles (kidney, spiked 1280 ng/mL): 98.8 ± 3.6 | Stability, Autosampler 4 °C for 24 h (liver, spiked 3 ng/mL): 96.3 ± 8.2 | Stability, Long-Term (at −80 °C for 30 Days) (liver, spiked 3 ng/mL): 93.7 ± 5.1 | Stability, Short-Term (at Room Temperature for 4 h) (liver, spiked 3 ng/mL): 98.2 ± 7.5 | Stability, Three Freeze–Thaw Cycles (liver, spiked 3 ng/mL): 103.3 ± 4.7 | Stability, Autosampler 4 °C for 24 h (liver, spiked 40 ng/mL): 98.8 ± 4.8 | Stability, Long-Term (at −80 °C for 30 Days) (liver, spiked 40 ng/mL): 87.1 ± 6.8 | Stability, Short-Term (at Room Temperature for 4 h) (liver, spiked 40 ng/mL): 93.5 ± 2.5 | Stability, Three Freeze–Thaw Cycles (liver, spiked 40 ng/mL): 96.4 ± 8.1 | Stability, Autosampler 4 °C for 24 h (liver, spiked 1280 ng/mL): 113.6 ± 4.2 | Stability, Long-Term (at −80 °C for 30 Days) (liver, spiked 1280 ng/mL): 97.9 ± 5.2 | Stability, Short-Term (at Room Temperature for 4 h) (liver, spiked 1280 ng/mL): 102.9 ± 6.5 | Stability, Three Freeze–Thaw Cycles (liver, spiked 1280 ng/mL): 95.1 ± 9.2 | Stability, Autosampler 4 °C for 24 h (lung, spiked 3 ng/mL): 102.5 ± 9.3 | Stability, Long-Term (at −80 °C for 30 Days) (lung, spiked 3 ng/mL): 95.6 ± 4.9 | Stability, Short-Term (at Room Temperature for 4 h) (lung, spiked 3 ng/mL): 108.7 ± 5.1 | Stability, Three Freeze–Thaw Cycles (lung, spiked 3 ng/mL): 95.9 ± 7.2 | Stability, Autosampler 4 °C for 24 h (lung, spiked 40 ng/mL): 99.3 ± 6.9 | Stability, Long-Term (at −80 °C for 30 Days) (lung, spiked 40 ng/mL): 106.7 ± 8.8 | Stability, Short-Term (at Room Temperature for 4 h) (lung, spiked 40 ng/mL): 103.1 ± 3.3 | Stability, Three Freeze–Thaw Cycles (lung, spiked 40 ng/mL): 86.0 ± 4.2 | Stability, Autosampler 4 °C for 24 h (lung, spiked 1280 ng/mL): 98.5 ±3.1 | Stability, Long-Term (at −80 °C for 30 Days) (lung, spiked 1280 ng/mL): 96.4 ± 4.8 | Stability, Short-Term (at Room Temperature for 4 h) (lung, spiked 1280 ng/mL): 101.2 ± 2.9 | Stability, Three Freeze–Thaw Cycles (lung, spiked 1280 ng/mL): 91.4 ± 5.9 | Stability, Autosampler 4 °C for 24 h (plasma, spiked 3 ng/mL): 97.3 ± 5.5 | Stability, Long-Term (at −80 °C for 30 Days) (plasma, spiked 3 ng/mL): 90.5 ± 6.7 | Stability, Short-Term (at Room Temperature for 4 h) (plasma, spiked 3 ng/mL): 103.9 ± 8.0 | Stability, Three Freeze–Thaw Cycles (plasma, spiked 3 ng/mL): 106.8 ± 8.8 | Stability, Autosampler 4 °C for 24 h (plasma, spiked 40 ng/mL): 96.6 ± 6.3 | Stability, Long-Term (at −80 °C for 30 Days) (plasma, spiked 40 ng/mL): 93.6 ± 8.2 | Stability, Short-Term (at Room Temperature for 4 h) (plasma, spiked 40 ng/mL): 100.1 ± 4.1 | Stability, Three Freeze–Thaw Cycles (plasma, spiked 40 ng/mL): 95.3 ± 8.3 | Stability, Autosampler 4 °C for 24 h (plasma, spiked 1280 ng/mL): 98.3 ± 2.9 | Stability, Long-Term (at −80 °C for 30 Days) (plasma, spiked 1280 ng/mL): 95.8 ± 8.4 | Stability, Short-Term (at Room Temperature for 4 h) (plasma, spiked 1280 ng/mL): 97.8 ± 4.1 | Stability, Three Freeze–Thaw Cycles (plasma, spiked 1280 ng/mL): 110.6 ± 5.6 | stability during processing procedures (room temperature for 4 h and autosampler for 24 h, deviation in concentration within ±15% from nominal values): stable | Stability, Autosampler 4 °C for 24 h (spleen, spiked 3 ng/mL): 103.8 ± 8.5 | Stability, Long-Term (at −80 °C for 30 Days) (spleen, spiked 3 ng/mL): 89.5 ± 8.9 | Stability, Short-Term (at Room Temperature for 4 h) (spleen, spiked 3 ng/mL): 96.2 ± 2.2 | Stability, Three Freeze–Thaw Cycles (spleen, spiked 3 ng/mL): 98.4 ± 6.6 | Stability, Autosampler 4 °C for 24 h (spleen, spiked 40 ng/mL): 105.8 ± 3.6 | Stability, Long-Term (at −80 °C for 30 Days) (spleen, spiked 40 ng/mL): 102.9 ± 8.7 | Stability, Short-Term (at Room Temperature for 4 h) (spleen, spiked 40 ng/mL): 100.6 ± 3.8 | Stability, Three Freeze–Thaw Cycles (spleen, spiked 40 ng/mL): 112.2 ± 6.5 | Stability, Autosampler 4 °C for 24 h (spleen, spiked 1280 ng/mL): 101.2 ± 4.2 | Stability, Long-Term (at −80 °C for 30 Days) (spleen, spiked 1280 ng/mL): 104.1 ± 5.2 | Stability, Short-Term (at Room Temperature for 4 h) (spleen, spiked 1280 ng/mL): 98.4 ± 2.1 | Stability, Three Freeze–Thaw Cycles (spleen, spiked 1280 ng/mL): 92.4 ± 7.8 | Stability, Autosampler 4 °C for 24 h (stomach, spiked 3 ng/mL): 87.5 ± 3.3 | Stability, Long-Term (at −80 °C for 30 Days) (stomach, spiked 3 ng/mL): 92.6 ± 6.5 | Stability, Short-Term (at Room Temperature for 4 h) (stomach, spiked 3 ng/mL): 100.6 ± 7.6 | Stability, Three Freeze–Thaw Cycles (stomach, spiked 3 ng/mL): 103.2 ± 4.2 | Stability, Autosampler 4 °C for 24 h (stomach, spiked 40 ng/mL): 104.8 ± 7.8 | Stability, Long-Term (at −80 °C for 30 Days) (stomach, spiked 40 ng/mL): 95.6 ± 5.8 | Stability, Short-Term (at Room Temperature for 4 h) (stomach, spiked 40 ng/mL): 99.0 ± 4.3 | Stability, Three Freeze–Thaw Cycles (stomach, spiked 40 ng/mL): 114.8 ± 6.6 | Stability, Autosampler 4 °C for 24 h (stomach, spiked 1280 ng/mL): 98.5 ± 2.6 | Stability, Long-Term (at −80 °C for 30 Days) (stomach, spiked 1280 ng/mL): 94.1 ± 6.1 | Stability, Short-Term (at Room Temperature for 4 h) (stomach, spiked 1280 ng/mL): 99.1 ± 4.2 | Stability, Three Freeze–Thaw Cycles (stomach, spiked 1280 ng/mL): 97.7 ± 4.7 | effect of storage on quantification (three freeze–thaw cycles and long-term storage (−80 °C for 30 days)): no effect on the quantification
